SMILES strings stand for the structures. pIC50: −log10 of the molar value.

One assay concerns the target human cyclin D1-CDK4 (Homo sapiens, UniProt P11802). In words: FlashPlate kinase assay, cyclin D1-CDK4. The format is biochemical. The following applies: Rb protein substrate, 1 μM ATP. How it is done:
(§1) To determine inhibition of Cdk4, Cdk2 and Cdk1 activity, kinase assays were conducted using FlashPlate™ assays (NEN™-Life Science Products). FlashPlate assays were performed using recombinant human cyclin B-CDK1, human cyclin E-CDK2 or human cyclin D1-CDK4 complexes. GST-cyclinE (GST-cycE), CDK2, GST-cyclinB (GST-cycB), CDK1, GST-CDK4 and cyclin D1 (cycD1) cDNA clones in baculovirus vectors were provided by Dr. W. Harper at the Baylor College of Medicine, Houston, Tex.
(§2) The expression of the 62Kd protein was under the control of an IPTG inducible promoter in an M15 E. coli strain. Cells were lysed by sonication and purification was carried out by binding lysates at pH 8.0 to a Ni-chelated agarose column pretreated with 1 mM imidazole. The resin was then washed several times with incrementally decreasing pH buffers to pH 6.0, and eluted with 500 mM imidazole. Eluted protein was dialysed against 20 mM HEPES pH 7.5, 30% glycerol, 200 mM NaCl, and 1 mM DTT. Purified Rb fusion protein stocks were quantitated for protein concentration, aliquoted, and stored at −70° C.
(§3) For all three kinase assays reported herein, 96-well FlashPlates were coated with Rb protein at 10 μg/ml, using 100 μl per well. Plates were incubated at 4° C. overnight or at room temperature for 3 hours on a shaker. To control for nonspecific phosphorylation, one row of wells was coated with 100 μl/well coating buffer (20 mM HEPES, 0.2 M NaCl). Plates were then washed twice with wash buffer (0.01% Tween 20 in phosphate-buffered saline). Compounds to be tested (“test compounds”) were added to the wells at 5×final concentration. Reactions were initiated by immediate addition of 40 μl reaction mix (25 mM HEPES, 20 mM MgCl2, 0.002% Tween 20, 2 mM DTT, 1 μM ATP, 4 nM ^33P-ATP) and a sufficient amount of enzyme to give counts that were at least 10-fold above background. Plates were incubated at room temperature on a shaker for 30 minutes. Plates were washed four times with the wash buffer, sealed, and counted on the TopCount scintillation counter (Packard Instrument Co., Downers Grove, Ill.]. The percent inhibition of Rb phosphorylation, which is a measure of the inhibition of CDK activity, was determined according to the following formula: [formula]
(§4) where “test compound” refers to the average counts per minute of the test duplicates, “nonspecific” refers to the average counts per minute when no CyclinD/Cdk4, etc., was added, and “total” refers to the average counts per minute when no compound was added.

Another assay deals with human cyclin E-CDK2 (Homo sapiens, UniProt P24941). In words: FlashPlate kinase assay, cyclin E-CDK2. Format: biochemical. The following applies: Rb protein substrate, 1 μM ATP. The method, then:
as §1, §2, §3, §4

Another assay deals with human cyclin B-CDK1 (Homo sapiens, UniProt P06493). In words: FlashPlate kinase assay, cyclin B-CDK1. The conditions noted are these: Rb protein substrate, 1 μM ATP. Format: biochemical. How it is done: as §1, §2, §3, §4
human cyclin B-CDK1, sequence (P06493 whole entry): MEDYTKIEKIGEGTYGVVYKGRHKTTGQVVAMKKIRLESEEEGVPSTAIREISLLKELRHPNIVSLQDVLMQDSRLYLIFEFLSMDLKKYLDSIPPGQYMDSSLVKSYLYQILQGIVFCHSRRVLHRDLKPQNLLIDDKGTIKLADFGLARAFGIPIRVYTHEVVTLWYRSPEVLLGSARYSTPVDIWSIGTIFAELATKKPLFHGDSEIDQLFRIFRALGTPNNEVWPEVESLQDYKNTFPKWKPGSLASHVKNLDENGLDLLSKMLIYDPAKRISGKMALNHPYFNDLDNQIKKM
human cyclin B-CDK1, sequence (P14635 whole entry partner): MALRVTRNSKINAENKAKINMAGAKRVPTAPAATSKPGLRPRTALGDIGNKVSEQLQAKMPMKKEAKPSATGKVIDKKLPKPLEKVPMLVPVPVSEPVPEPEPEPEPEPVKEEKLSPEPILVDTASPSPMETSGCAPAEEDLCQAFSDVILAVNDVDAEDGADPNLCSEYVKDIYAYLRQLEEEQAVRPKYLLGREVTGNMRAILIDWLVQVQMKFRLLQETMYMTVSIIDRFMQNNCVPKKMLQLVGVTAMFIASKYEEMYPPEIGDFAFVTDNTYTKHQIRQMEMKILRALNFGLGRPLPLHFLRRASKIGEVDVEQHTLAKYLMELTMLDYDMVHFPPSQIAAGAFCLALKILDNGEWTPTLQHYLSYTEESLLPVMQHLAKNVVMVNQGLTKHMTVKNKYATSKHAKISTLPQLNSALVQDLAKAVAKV
In the next assay the test system is HCT116. In words: Tetrazolium dye (MTT) proliferation assay. Format: cell-based. The conditions noted are these: Homo sapiens, HCT-116; HCT116 colorectal carcinoma cell line. The method, then: The cell line used was HCT116, a colorectal carcinoma cell line obtained from the American Type Cell Culture Collection (ATCC;
Rockville, Md.). The cells were grown in McCoy's 5A medium supplemented with 10% FCS and L-glutamine.
Cells were plated at the appropriate seeding density to give logarithmic growth over the course of the assay in a 96-well tissue culture plate. Plates were incubated overnight at 37° C. in a humidified incubator with 5% CO2. The next day, test compounds were serially diluted to four times the final concentration in the appropriate medium containing 1.2% DMSO. One-fourth final volume of each dilution was added in duplicate to the plates containing cells. The same volume of 1.2% DMSO in medium was added to a row of “control wells” such that the final concentration of DMSO in each well was 0.3%. Wells to which no cells were added served as the “blank.” Wells to which no inhibitor was added served as “no inhibitor control.” The plates were) returned to the incubator, and at set time points (determined by their growth curves) plates were analyzed as described below.
3-(4,5-dimethylthiazole-2-yl)-2,5-diphenyl-2H-tetrazolium bromide (thiazolyl blue; MTT; Sigma) was added to each well to yield a final concentration of 1 mg/ml. Plates were returned to the incubator for 2.5-3 hours at 37° C. The MTT-containing medium was removed and the resulting formazan metabolite was solubilized in 100% ethanol with shaking for 15 minutes at room temperature. Absorbance readings were taken in a microtiter plate reader (Dynatech and Molecular Devices plate readers were used interchangeably) at a wavelength of 570 nm with a 650 nm reference. Percent inhibition (% INH) is calculated by subtracting the absorbance of the blank well from all wells, then subtracting the ratio of the average absorbance of each test duplicate (SAVE) by the average of the controls (CAVE) from 1.00. The final number is then multiplied by 100 (% INH=(1.00−SAVE/CAVE)×100).

human cyclin D1-CDK4, sequence (P11802 whole entry): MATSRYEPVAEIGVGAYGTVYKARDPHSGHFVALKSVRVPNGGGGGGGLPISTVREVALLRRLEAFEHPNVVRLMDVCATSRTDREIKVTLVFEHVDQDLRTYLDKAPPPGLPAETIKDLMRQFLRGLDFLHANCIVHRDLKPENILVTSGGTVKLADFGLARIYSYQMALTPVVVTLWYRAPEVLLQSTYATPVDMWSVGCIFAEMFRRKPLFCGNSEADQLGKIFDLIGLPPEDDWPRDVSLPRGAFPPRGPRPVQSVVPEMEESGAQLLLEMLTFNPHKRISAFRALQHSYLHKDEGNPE
human cyclin D1-CDK4, sequence (P24385 whole entry partner): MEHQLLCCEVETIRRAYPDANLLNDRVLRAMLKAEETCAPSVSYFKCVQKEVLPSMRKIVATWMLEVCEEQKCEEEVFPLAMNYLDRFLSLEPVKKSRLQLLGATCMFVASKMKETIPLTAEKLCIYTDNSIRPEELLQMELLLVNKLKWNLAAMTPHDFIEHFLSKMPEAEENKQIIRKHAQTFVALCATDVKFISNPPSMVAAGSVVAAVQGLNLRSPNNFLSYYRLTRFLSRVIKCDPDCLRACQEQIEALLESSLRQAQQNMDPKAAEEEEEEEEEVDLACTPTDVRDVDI

Consider `CN1CCN(c2ccc(Nc3nc(N)c(C(=O)c4ccc(N5CCCC(CO)C5)c([N+](=O)[O-])c4)s3)cc2)CC1` (racemic) [Example 61, [4-Amino-2-[[4-(4-methyl-1-piperazinyl)phenyl]amino]-5-thiazolyl][3-nitro-4-[3-(hydroxymethyl)-1-piperidinyl]phenyl]methanone], for which the negative-log IC50 (pIC50) (commonly the IC50 on a negative log10 scale, so that one unit is a factor of ten) against human cyclin D1-CDK4 was 7.92; against human cyclin E-CDK2, 5.64; at human cyclin B-CDK1, 5.46; in the assay with HCT116, 5.41.
The corresponding values for `CC1CCCN1c1ccc(C(=O)c2sc(Nc3ccc(N4CCN(C)CC4)cc3)nc2N)cc1[N+](=O)[O-]` (racemic) [Example 62, [4-Amino-2-[[4-(4-methyl-1-piperazinyl)phenyl]amino]-5-thiazolyl][3-nitro-4-(2-methyl-1-pyrrolidinyl)phenyl]methanone] are 7.36, 5.23, 5.00 and 5.36.
For `CN1CCN(c2ccc(Nc3nc(N)c(C(=O)c4ccc5c(c4)OCCO5)s3)cc2)CC1` [Example 24, [4-Amino-2-[[4-(4-methyl-1-piperazinyl)phenyl]amino]-5-thiazolyl](2,3-dihydro-1,4-benzodioxin-6-yl)methanone], in that order: 7.70, 5.37, 5.60 and 5.41.
The corresponding values for `CN1CCN(c2ccc(Nc3nc(N)c(C(=O)c4ccc5c(c4)OCO5)s3)cc2)CC1` [Example 25, [4-Amino-2-[[4-(4-methyl-1-piperazinyl)phenyl]amino]-5-thiazolyl](1,3-benzodioxol-5-yl)methanone] are 7.74, 5.46, 6.30 and 5.46.
Take `CN1CCN(c2ccc(Nc3nc(N)c(C(=O)c4ccc(N5CCCC5)cc4)s3)cc2)CC1` [Example 26, [4-Amino-2-[[4-(4-methyl-1-piperazinyl)phenyl]amino]-5-thiazolyl][4-(1-pyrrolidinyl)phenyl]methanone]: the pIC50 at human cyclin D1-CDK4 is 7.23; against human cyclin E-CDK2, 5.21; at human cyclin B-CDK1 it was 5.05; with HCT116 it was 5.25.
The corresponding values for `CN1CCN(c2ccc(Nc3nc(N)c(C(=O)c4ccc(N5CCCCC5)cc4)s3)cc2)CC1` [Example 27, [4-Amino-2-[[4-(4-methyl-1-piperazinyl)phenyl]amino]-5-thiazolyl][4-(1-piperidinyl)phenyl]methanone] are 8.40, 5.03, 4.70 and 5.04.
For `CN1CCN(c2ccc(Nc3nc(N)c(C(=O)c4ccc(N5CCOCC5)cc4)s3)cc2)CC1` [Example 28, [4-Amino-2-[[4-(4-methyl-1-piperazinyl)phenyl]amino]-5-thiazolyl][4-(4-morpholinyl)phenyl]methanone], in that order: 7.77, 4.65, 5.04 and 5.02.
For the compound `CN1CCN(c2ccc(Nc3nc(N)c(C(=O)c4ccc5c(c4)OCCCO5)s3)cc2)CC1` [Example 29, [4-Amino-2-[[4-(4-methyl-1-piperazinyl)phenyl]amino]-5-thiazolyl](3,4-dihydro-2H-1,5-benzodioxepin-7-yl)methanone], the negative-log IC50 (pIC50) against human cyclin D1-CDK4 is 6.99; at human cyclin E-CDK2, 5.02; against human cyclin B-CDK1, 4.80; in the assay on HCT116 it was 5.02.
Regarding `CN1CCN(c2ccc(Nc3nc(N)c(C(=O)c4ccc(O)cc4)s3)cc2)CC1` [Example 30, [4-Amino-2-[[4-(4-methyl-1-piperazinyl)phenyl]amino]-5-thiazolyl]-(4-hydroxyphenyl)methanone], the pIC50 on human cyclin D1-CDK4 is 7.28; on human cyclin E-CDK2 it was 5.64; at human cyclin B-CDK1, 5.62; with HCT116, 5.44.
The corresponding values for `CN1CCN(c2ccc(Nc3nc(N)c(C(=O)c4cccc([N+](=O)[O-])c4)s3)cc2)CC1` [Example 31, [4-Amino-2-[[4-(4-methyl-1-piperazinyl)phenyl]amino]-5-thiazolyl](3-nitrophenyl)methanone] are 7.59, 5.64, 6.30 and 5.39.
The corresponding values for `COc1ccc(C(=O)c2sc(Nc3ccc(N4CCN(C)CC4)cc3)nc2N)cc1` [Example 32, [4-Amino-2-[[4-(4-methyl-1-piperazinyl)phenyl]amino]-5-thiazolyl](4-methoxyphenyl)methanone] are 7.10, 5.02, 5.41 and 5.25.
The corresponding values for `CCN(CC)c1ccc(C(=O)c2sc(Nc3ccc(N4CCN(C)CC4)cc3)nc2N)cc1` [Example 33, [4-Amino-2-[[4-(4-methyl-1-piperazinyl)phenyl]amino]-5-thiazolyl][4-(diethylamino)phenyl]methanone] are 8.10, 5.19, 5.21 and 5.04.
For the compound `CN1CCN(c2ccc(Nc3nc(N)c(C(=O)c4ccc5oc6ccccc6c5c4)s3)cc2)CC1` [Example 34, [4-Amino-2-[[4-(4-methyl-1-piperazinyl)phenyl]amino]-5-thiazolyl](2-dibenzofuranyl)methanone], the pIC50 is 7.31 against human cyclin D1-CDK4, 5.21 against human cyclin E-CDK2, 4.93 against human cyclin B-CDK1 and 5.42 with HCT116.
In the case of `COc1ccc(C(=O)c2sc(Nc3ccc(N4CCN(C)CC4)cc3)nc2N)cc1F` [Example 35, [4-Amino-2-[[4-(4-methyl-1-piperazinyl)phenyl]amino]-5-thiazolyl](3-fluoro-4-methoxyphenyl)methanone], the pIC50 against human cyclin D1-CDK4 was 8.10; against human cyclin E-CDK2, 5.74; against human cyclin B-CDK1, 5.96; with HCT116, 5.74.
In the case of `COc1cccc(C(=O)c2sc(Nc3ccc(N4CCN(C)CC4)cc3)nc2N)c1` [Example 36, [4-Amino-2-[[4-(4-methyl-1-piperazinyl)phenyl]amino]-5-thiazolyl](3-methoxyphenyl)methanone], the pIC50 is 7.60 against human cyclin D1-CDK4, 5.27 against human cyclin E-CDK2, 5.68 against human cyclin B-CDK1 and 5.55 with HCT116.
Consider `CN1CCN(c2ccc(Nc3nc(N)c(C(=O)c4ccc(Cl)c(Cl)c4)s3)cc2)CC1` [Example 37, [4-Amino-2-[[4-(4-methyl-1-piperazinyl)phenyl]amino]-5-thiazolyl](3,4-dichlorophenyl)methanone], for which the pIC50 against human cyclin D1-CDK4 is 7.14; against human cyclin E-CDK2 it was 5.20; against human cyclin B-CDK1, 5.00; in the assay on HCT116 it was 5.18.
For `CN1CCN(c2ccc(Nc3nc(N)c(C(=O)c4ccc5c(c4)OCO5)s3)cc2F)CC1` [Example 38, [4-Amino-2-[[3-fluoro-4-(4-methyl-1-piperazinyl)phenyl]amino]-5-thiazolyl](1,3-benzodioxol-5-yl)methanone], in that order: 8.22, 5.59, 5.70 and 5.72.
